Source: ChEMBL document CHEMBL5252579, “Discovery of fluorinated 2‑Styryl 4(3H)-quinazolinone as potential therapeutic hit for oral cancer” (Bioorg Med Chem, 2023)
The source made the active and inactive calls. The rule behind the calls is not given here.

Assays:
[1] = Cytotoxicity against human normal oral epithelial cell assessed as reduction in cell viability incubated for 24 hrs by alamar blue assay; format: toxicity, cell-based; conditions: normal oral epithelial cells
CAL-27 [2] = experiment: Cytotoxicity against human CAL-27 cells assessed as reduction in cell viability incubated for 24 hrs by alamar blue assay; format: functional, cell-based; conditions: CAL-27, 24 h
CAL-27 [3] = experiment: Downregulation of MYC gene in human CAL-27 cells at IC50 concentration incubated for 24 hrs by RNA sequencing analysis; format: functional, cell-based
[4] = Induction of cell cycle arrest in human normal oral epithelial cell assessed as accumulation at G1 phase at IC50 concentration incubated for 24 hrs by propidium iodide staining based flow cytometric analysis (reference value: 55.49 %); format: toxicity
CAL-27 [5] = experiment: Induction of cell cycle arrest in human CAL-27 cells assessed as accumulation at G2/M phase at IC50 concentration incubated for 24 hrs by propidium iodide staining based flow cytometric analysis (reference value: […]); format: functional
CAL-27 [6] = experiment: Cytotoxicity against human CAL-27 cells assessed as reduction in cell viability incubated for 72 hrs by alamar blue assay; format: functional, cell-based; conditions: CAL-27, 72 h
CAL-27 [7] = experiment: Upregulation of epithelial mesenchymal gene in human CAL-27 cells at IC50 concentration incubated for 24 hrs by RNA sequencing analysis; format: functional, cell-based
[8] = Induction of cell cycle arrest in human normal oral epithelial cell assessed as accumulation at G2/M phase at IC50 concentration incubated for 24 hrs by propidium iodide staining based flow cytometric analysis (reference value: 12.79 %); format: toxicity
CAL-27 [9] = experiment: Upregulation of MTORC1 signaling gene in human CAL-27 cells at IC50 concentration incubated for 24 hrs by RNA sequencing analysis; format: functional, cell-based
CAL-27 [10] = experiment: Antimigratory activity against human CAL-27 cells at 14 uM after 24 hrs by scratch wound healing assay; format: functional
CAL-27 [11] = experiment: Upregulation of p53 pathway in human CAL-27 cells at IC50 concentration incubated for 24 hrs by RNA sequencing analysis; format: functional, cell-based
CAL-27 [12] = experiment: Downregulation of G2M checkpoint gene in human CAL-27 cells at IC50 concentration incubated for 24 hrs by RNA sequencing analysis; format: functional, cell-based
CAL-27 [13] = experiment: Antimigratory activity against human CAL-27 cells assessed as reduction in number of colonies at 14 uM replaced with fresh medium for every 2 days for 10 days by crystal violet staining based inverted microscopic analysis (reference value: 234); format: functional; conditions: time 10 day
CAL-27 [14] = experiment: Upregulation of TNF-alpha signaling NF-kappaB gene in human CAL-27 cells at IC50 concentration incubated for 24 hrs by RNA sequencing analysis; format: functional, cell-based
CAL-27 [15] = experiment: Upregulation of IL2 STAT5 signaling gene in human CAL-27 cells at IC50 concentration incubated for 24 hrs by RNA sequencing analysis; format: functional, cell-based
CAL-27 [16] = experiment: Downregulation of estrogen response gene in human CAL-27 cells at IC50 concentration incubated for 24 hrs by RNA sequencing analysis; format: functional, cell-based
CAL-27 [17] = experiment: Downregulation of MTORC1 signaling gene in human CAL-27 cells at IC50 concentration incubated for 24 hrs by RNA sequencing analysis; format: functional, cell-based
CAL-27 [18] = experiment: Upregulation of hypoxia related gene in human CAL-27 cells at IC50 concentration incubated for 24 hrs by RNA sequencing analysis; format: functional, cell-based
CAL-27 [19] = experiment: Antimigratory activity against human CAL-27 cells assessed as reduction in gap closure at 14 uM after 24 hrs by scratch wound healing assay (reference value: 65.2%); format: functional; parameters: scale not given: the % may be the effect or the level left
CAL-27 [20] = experiment: Upregulation of glycolysis gene in human CAL-27 cells at IC50 concentration incubated for 24 hrs by RNA sequencing analysis; format: functional, cell-based
CAL-27 [21] = experiment: Induction of cell cycle arrest in human CAL-27 cells assessed as accumulation at G1 phase at IC50 concentration incubated for 24 hrs by propidium iodide staining based flow cytometric analysis (reference value: 61.61 %); format: functional
CAL-27 [22] = experiment: Upregulation of KRAS signaling gene in human CAL-27 cells at IC50 concentration incubated for 24 hrs by RNA sequencing analysis; format: functional, cell-based
[23] = Induction of cell cycle arrest in human normal oral epithelial cell assessed as reduction in cells at S phase at IC50 concentration incubated for 24 hrs by propidium iodide staining based flow cytometric analysis (reference value: 31.85 %); format: toxicity; parameters: scale not given: the % may be the effect or the level left
CAL-27 [24] = experiment: Downregulation of mitotic spindle in human CAL-27 cells at IC50 concentration incubated for 24 hrs by RNA sequencing analysis; format: functional, cell-based
CAL-27 [25] = experiment: Cytotoxicity against human CAL-27 cells assessed as reduction in cell viability incubated for 48 hrs by alamar blue assay; format: functional, cell-based; conditions: CAL-27, 48 h
CAL-27 [26] = experiment: Downregulation of KRAS signaling gene in human CAL-27 cells at IC50 concentration incubated for 24 hrs by RNA sequencing analysis; format: functional, cell-based
CAL-27 [27] = experiment: Upregulation of myogenesis gene in human CAL-27 cells at IC50 concentration incubated for 24 hrs by RNA sequencing analysis; format: functional, cell-based
CAL-27 [28] = experiment: Upregulation of apoptosis gene in human CAL-27 cells at IC50 concentration incubated for 24 hrs by RNA sequencing analysis; format: functional, cell-based
CAL-27 [29] = experiment: Downregulation of interferon gamma gene in human CAL-27 cells at IC50 concentration incubated for 24 hrs by RNA sequencing analysis; format: functional, cell-based
CAL-27 [30] = experiment: Downregulation of E2F gene in human CAL-27 cells at IC50 concentration incubated for 24 hrs by RNA sequencing analysis; format: functional, cell-based
CAL-27 [31] = experiment: Induction of cell cycle arrest in human CAL-27 cells assessed as decrease in cells at S phase at IC50 concentration incubated for 24 hrs by propidium iodide staining based flow cytometric analysis (reference value: 23.97 %); format: functional; parameters: scale not given: the % may be the effect or the level left

O=c1[nH]c(/C=C/c2c(F)c(F)c(F)c(F)c2F)nc2ccccc12
IC50 at 24 h [1]: 17 µM | IC50 (CAL-27 [2]): 13.6 µM

O=c1[nH]c(/C=C/c2cccc(F)c2)nc2ccccc12
IC50 at 24 h [1]: 26 µM | IC50 (CAL-27 [2]): 16 µM

O=c1[nH]c(/C=C/c2cccs2)nc2ccccc12
IC50 at 24 h [1]: 16.2 µM | IC50 (CAL-27 [2]): 11.3 µM

O=c1[nH]c(/C=C/c2ccc([N+](=O)[O-])cc2)nc2ccccc12
IC50 at 24 h [1]: 12 µM | IC50 (CAL-27 [2]): 16 µM

O=c1[nH]c(/C=C/c2ccc(F)cc2)nc2ccccc12
Activity (CAL-27 [3]): Active | Activity [4]: 55.99% | Activity (CAL-27 [5]): 14.24% | IC50 (CAL-27 [6]): 8 µM | Activity (CAL-27 [7]): Active | IC50 at 24 h [1]: 41.4 µM | Activity [8]: 13.79% | Activity (CAL-27 [9]): Active | Activity (CAL-27 [10]): 64% | Activity (CAL-27 [11]): Active | Activity (CAL-27 [12]): Active | Activity (CAL-27 [13]): 158 | Activity (CAL-27 [14]): Active | Activity (CAL-27 [15]): Active | Activity (CAL-27 [16]): Active | Activity (CAL-27 [17]): Active | Activity (CAL-27 [18]): Active | Activity (CAL-27 [19]): 36% | Activity (CAL-27 [20]): Active | Activity (CAL-27 [21]): 76.12% | Activity (CAL-27 [22]): Active | Activity [23]: 30.19% | Activity (CAL-27 [24]): Active | IC50 (CAL-27 [25]): 10 µM | Activity (CAL-27 [26]): Active | Activity (CAL-27 [27]): Active | Activity (CAL-27 [28]): Active | Activity (CAL-27 [29]): Active | Activity (CAL-27 [30]): Active | IC50 (CAL-27 [2]): 12.9 µM | Activity (CAL-27 [31]): 9.76%

COc1ccc(/C=C/c2nc3ccccc3c(=O)[nH]2)cc1
IC50 at 24 h [1]: 13 µM | IC50 (CAL-27 [2]): 14 µM

CN(C)c1ccc(/C=C/c2nc(O)c3ccccc3n2)cc1
IC50 at 24 h [1]: 31 µM | IC50 (CAL-27 [2]): 13.6 µM

Cc1ccc(/C=C/c2nc(O)c3ccccc3n2)cc1
IC50 at 24 h [1]: 14 µM | IC50 (CAL-27 [2]): 14.6 µM

O=c1[nH]c(/C=C/c2ccc(Cl)cc2)nc2ccccc12
IC50 at 24 h [1]: 17 µM | IC50 (CAL-27 [2]): 15.6 µM

N#Cc1ccc(/C=C/c2nc3ccccc3c(=O)[nH]2)cc1
IC50 at 24 h [1]: 25 µM | IC50 (CAL-27 [2]): 17 µM

C/C(=C\c1ccccc1)c1nc2ccccc2c(=O)[nH]1
IC50 at 24 h [1]: 15 µM | IC50 (CAL-27 [2]): 8.6 µM
